Measurements from PMC6290777, “Inhalation of the prodrug PI3K inhibitor CL27c improves lung function in asthma and fibrosis” (Nature Communications, 2018).

Key:
Type in all cases: in vivo, BALB/c mice
[1] = system: OVA-induced acute allergic asthma; assay: OVA-induced acute allergic asthma model; conditions: systemic treatment, i.p.
Procedure: On Days 1 and 14, BALB/c mice (6–8 weeks) received an intraperitoneal injection (i.p.) of a solution containing 0.5 mg/ml OVA and 5 mg/ml Alum (described in Fig. 2). Untreated controls were injected with a solution of 5 mg/ml Alum. […] Untreated control groups included mice challenged with PBS alone. On day 29, mice were sacrificed, and samples were collected for further analysis.
(§1) BALF was performed to obtain leukocytes from alveolar space. The trachea was exposed and a 1.7-mm-outside-diameter polyethylene catheter was inserted. BAL was performed by washing the lungs three-times with three different 500 µl aliquots of PBS. BALF samples were centrifuged at 600 × g for 10 min at 4 °C on a histology glass slide and stained with Diff Quick (MICROPTIC, #DQ-ST). The number of leukocytes and differential counts of different population were obtained evaluating the percentage leukocyte populations over the total cell number.
(§2) IL-5, IL-13, eotaxin, TGF-β, KC, IL-17A, and MCP-1 levels in the BALF and anti-OVA IgE levels in serum were measured by ELISA technique using commercial DuoSet kits R&D Systems according to the instructions of the manufacturer. Results were expressed in levels of cytokines per ml of […] (pg/ml) or arbitrary units (A.U.).
Immunohistochemistry for CD18 was performed using the streptavidin-biotin-peroxidase method in formalin-fixed, paraffin-embedded tissue sections (5 µm thick) mounted on poly-L-lysine-coated microscope slides. Lung cross-sections were deparaffinized and rehydrated through xylene and graded alcohols. After antigen retrieval, endogenous peroxidase was blocked (15 min) with 3% (v/v) hydrogen peroxide and washed in phosphate-buffered saline (PBS). Sections were incubated overnight (4 °C) with primary rabbit anti-CD18 antibody (Acris Antibodies GmbH, Germany, Cat. Number B0842-1) diluted 1:400 in PBS plus bovine serum albumin (PBS-BSA) or rabbit anti/PAkt (S473) diluted 1:100 in PBS/BSA. The slides were then incubated with biotinylated goat anti-rabbit antibody (Dako Agilent Pathology Solution, USA) diluted 1:1000 in PBS/BSA. After washing, the slides were incubated with avidin-biotin-horseradish peroxidase conjugate (Dako Agilent Pathology Solution, USA) for 30 min, according to the manufacturer’s instructions. CD18 and PAkt-positive cells were visualized with the chromogen 3,3′-diaminobenzidine (DAKO liquid DAB + substrate chromogen system, CA, USA). Slides were counterstained with Harry’s hematoxylin, dehydrated in a graded alcohol series, cleared in xylene, and cover slipped.
Lung, liver, and heart samples were collected for western blot detection of akt phosphorilation levels. Protein samples were resolved by 10% SDS-PAGE and transferred on to PVDF (Immobilon™-P) membranes. The membranes were blocked with 5% BSA in 1x TBS with 0.3% Tween 20 for 30 min at […]. Then, the membranes were incubated overnight at 4 °C with primary antibodies (phosphorylated Akt serine 473, 1:1000, Cell Signaling Technology, Cat. Number 4060) and 1 h with HRP-conjugated secondary antibody (1:10000). The blots were visualized in ECL solution for 1 min and images were captured on Luminescent Image Analyser (ChemiDoc Imaging Systems, Bio-Rad Laboratories, USA). For loading control, the blots were striped and reassessed with pan Akt (1:1000) antibody. For quantification, specific phosphorylation was calculated as the ratio of signals for phosphorylated Akt to the signal of total Akt detected. Values of unstimulated samples were set to 1.0. Uncropped scans of the most important blots are provided as a supplementary figure in the Supplementary Information (Supplementary Fig. 15).

[2] = system: OVA-induced chronic allergic asthma; assay: OVA-induced chronic allergic asthma model; conditions: CL27c 2 mg/ml aerosol or dexamethasone 5 mg/kg
Procedure: as §1
(§3) Mice were anesthetized with a subcutaneous injection of ketamine and xylazine (130 mg/Kg ketamine and 8.5 mg/Kg xylazine) to maintain spontaneous breathing under anesthesia. Mice were tracheostomized, placed in a body plethysmograph and connected to a computer-controlled ventilator (Forced Pulmonary Maneuver System®, Buxco Research Systems©, Wilmington, North Carolina USA). First, an average breathing frequency of 160 breaths/min was imposed to the anesthetized animal by a pressure-controlled ventilation until a regular breathing pattern and complete expiration at each breathing cycle was obtained. Under mechanical respiration, respiratory flow and airway pressure were measured to compute dynamic compliance (Cdyn) and lung resistance (RL). To measure the TLC, pressure–volume maneuvers were performed, where lungs were inflated to a standard pressure of +30 cm H2O and then let slowly exhale until a negative pressure of −30 cm H2O was reached. To measure the FEV Fast-Flow Volume maneuvers was performed. In this maneuver, lungs were first inflated to +30 cm H2O (TLC) and, immediately, a negative pressure (−30 cm H2O) was applied in order to enforce expiration. To evaluate AHR, the same mice used in previous maneuvers (basal condition) received Metacholine, 1 mg/Kg (Acetyl-β-methylcholine chloride, A-2251, Sigma-Aldrich St.Louis, MO,USA) i.v., and 20 sec after, a new set of maneuvers were conducted to assess RL changes. Suboptimal maneuvers were rejected and for each test in every single mouse at least three acceptable maneuvers were conducted to obtain a reliable mean for all numeric parameters.
On day 1, BALB/c mice received systemic immunization by subcutaneous injection of 10 µg of chicken egg ovalbumin (OVA grade V, >98% pure; Sigma, St Louis, MO) diluted in 2 mg/mL Al(OH)3 followed by a booster injection at the day 14 (described in fig. 3). Nasal challenges were performed starting at the day 28, by inhalational exposure to aerosolised ovalbumin (1% ovalbumin in saline 0,9%) for 20 min per day, in alternated days during 16 days (day 28, 30, 32, 34, 36, 38, 40, 42 and 44). At the same time, mice received daily treatment from day 28 to 44 with CL27c (2 mg/ml dissolved in 0.5 % tylaxopol/saline solution, aerosolized for 30′) or vehicle (0.5% tyloxapol/saline solution, aerosolized for 30′), or dexamethasone (5 mg/kg i.p. injection). Untreated control groups included mice challenged with PBS alone. On day 45, mice were sacrificed, and samples were collected for further analysis.
as §2
The left lung was removed and fixed in 4% neutral phosphate-buffered formalin (pH 7.4)[10]. The tissues were dehydrated gradually in ethanol, embedded in paraffin, cut into 4 µm sections, stained with H&E, Gomori’s trichrome and periodic acid schiff (PAS), and examined under light microscopy by a pathologist in a double blinded manner. Images of lung sections were captured with a digital camera (Optronics DEI-470) connected to a microscope (Olympus IX70) with a magnification of ×40 or ×100. […]

[3] = system: glucocorticoid-resistant neutrophilic asthma; assay: Glucocorticoid-resistant asthma model; conditions: CL27c 2 mg/ml aerosol; dexamethasone 5 mg/kg i.p.
Procedure: as §1, §3, §2
On day 1 BALB/c mice received systemic immunization by subcutaneous injection of 20 µg of chicken egg ovalbumin (OVA grade V, >98% pure; Sigma, St Louis, MO) in saline, emulsified in 75 µL CFA (Complete Freund’s Adjuvant; Sigma-Aldrich) (Figure 5)[52]. On days 25–28 mice were exposed to aerosolised ovalbumin (1% in saline) for 20 min per day. Mice were exposed during 30 min to aerosolized CL27c (2 mg/ml dissolved in 0.5 % tylaxopol/saline solution) or vehicle (0.5% tyloxapol/saline solution), or to systemic treatment with dexamethasone (5 mg/kg i.p. injection). Untreated control groups included mice challenged with PBS alone. On day 29, mice were sacrificed, and samples were collected for further analysis.
The left lung was removed and fixed in 4% neutral phosphate-buffered formalin (pH 7.4)[10]. The tissues were dehydrated gradually in ethanol, embedded in paraffin, cut into 4 µm sections, stained with H&E, Gomori’s trichrome and periodic acid schiff (PAS), and examined under light microscopy by a pathologist in a double blinded manner. Images of lung sections were captured with a digital camera (Optronics DEI-470) connected to a microscope (Olympus IX70) with a magnification of ×40 or ×100. Inflammation was scored according to modification of existing protocols[53] and to the histopathology criteria reported in Supplementary Table 4.

Which “BALF accumulation of inflammatory cells” value [1] does the source give for `C[C@@H]1C[C@H]2[C@@H]3CCC4=CC(=O)C=C[C@]4(C)[C@@]3(F)[C@@H](O)C[C@]2(C)[C@@]1(O)C(=O)CO` [Dexamethasone, reference compound] here?
Its value is “significantly reduced this infiltration”.

And the “accumulation of inflammatory cells in peribronchial and perivascular spaces” value [2]?
The value was “significantly decreased”.

And the “lung function: lung resistance (RL) and dynamic compliance (Cdyn)” value [2]?
The value was “normalize lung function”.

What about the “peribronchial fibrosis (fibrotic airway remodeling)” value [2] of the same compound?
Its value is “significantly reduced”.

And the “histopathology: overall score of lung damage / tissue inflammation” value [3]?
Its value is “failed to provide an effect”.
